Experimental data as given in patent US8597620B2, “Composition comprising a tocopherol phosphate and preparation process” (LVMH Recherche, priority 2010, dated 2013).

Assay: Assaying of tocopherol phosphate by HPLC in the concentrated aqueous solution (state of dissolution)
Assay type: physicochemical
Conditions: concentrated aqueous solution of Example 1 (3.5% PPG-6-Decyltetradeceth-20, 17.4% 1,2-pentanediol, 8.7% γ-TPNa added, water), UV 290 nm, ambient temperature
Experimental: Method for the Assaying of Tocopherol Phosphate by HPLC
The concentrated solution of γ-TPNa obtained in Example 1 and the compositions prepared in Examples 2 to 5 are assayed for tocopherol phosphate by HPLC according to the following conditions:
Elution gradient:—Eluent A: sodium acetate/acetic acid buffer pH 4.2 • Eluent B=methanol/THF (80/20)
Preparation of the Solutions
Diluent: Eluent A/eluent B (20/80 v/v)
Standard solution for the calibration=solution of γ-TPNa at 0.08 mg/ml of diluent.
Solution for the assaying of the concentrated solution (Ex. 1):
100 mg of the concentrated aqueous solution are withdrawn and diluted in 100 ml of diluent.

Cc1c(OP(=O)([O-])[O-])cc2c(c1C)OC(C)(CCCC(C)CCCC(C)CCCC(C)C)CC2.[Na+].[Na+] (stereo not shown) [γ-TPNa, Sodium salt of γ-tocopherol phosphate]
Result of the assaying of the γ-TPNa in the concentrated solution (dissolved amount): 8.7 % by weight
